This experiment addresses T1, mouse I7 receptor (mI7) (Mus musculus, UniProt Q9QWU6).
T1 sequence (Q9QWU6 1-327): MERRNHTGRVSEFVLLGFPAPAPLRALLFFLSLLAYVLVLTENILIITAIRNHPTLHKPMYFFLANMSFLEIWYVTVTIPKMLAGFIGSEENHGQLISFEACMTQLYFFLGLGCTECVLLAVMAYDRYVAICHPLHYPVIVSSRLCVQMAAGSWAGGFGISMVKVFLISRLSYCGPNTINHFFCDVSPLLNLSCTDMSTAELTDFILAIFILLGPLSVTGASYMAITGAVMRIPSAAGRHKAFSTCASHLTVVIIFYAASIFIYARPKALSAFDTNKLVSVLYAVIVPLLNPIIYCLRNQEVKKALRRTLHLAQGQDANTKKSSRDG

EC50 data for two compounds are collected here from publication PMC2901914 (Neuron, 2010).

Broadly, the EC50 is the midpoint of the concentration-response curve. Read a low EC50 as a more potent agent.

The compound `CCCCCCC=O` [7al, heptanal] came in with a concentration for a half-maximal effect (EC50) of about 6.3 µM.
Next, `CCCCCCCC=O` [8al, octanal]: about 63.1 µM.
